Assay results as given in US9028856B2, “Synergistic pesticide compositions” (priority 2008, dated 2015).

Columns and labels:
[1] = octanol-water partition coefficient (Log K ow), Table 1; cited from earlier work
spiders = experiment: Spider control field trial on structures (spider counts in treated and untreated plots); format: in vivo; conditions: imidacloprid ca. 22 mg AI per sq. m; deltamethrin ca. 12 mg AI per sq. m
Text: Replicated plots (e.g., 1 meter sq. or as site dictates) were defined for treatment and observations. All living spiders in this area were counted, and the trial was begun by sweeping down all webbing, being careful not to harm the resident spiders in the process. The combinations were applied in the very sites formerly occupied by the spiders. The sites were re-visited intermittently, and total number of spiders in treated and untreated plots were counted. The evaluations were continued until the control failed, or as long as was practical. All formulations were diluted in water before treatment. All imidacloprid treatments were applied to the plots at the same rate of ca. 22 mg AI per sq. m. of surface area; deltamethrin was applied at the label rate of ca. 12 mg AI per sq. m. of surface area and served as a positive control. All treatments were replicated in three plots.

[2] = system: German cockroach (Blattella germanica); experiment: Contact efficacy against cockroaches on filter papers in glass dishes; format: in vivo
Text: The objective of this study was to evaluate differences between deltamethrin and imidacloprid with and without adjuvant against cockroaches. The method for determining contact efficacy against cockroaches was the same as that in Example 107.

[3] = system: bedbug (Cimex lectularius), susceptible strain; experiment: Contact efficacy against bedbugs on filter papers in glass dishes; format: in vivo
Procedure: Adult Cimex lectularius, susceptible strain, were used. A solution of the active ingredient in acetone was prepared. In the same mode a complete […]. All these works were done under drawing off conditions. After evaporation of the acetone (30′) the dishes were closed by a glass lid and transferred into the test room.
One day later ten bedbugs, anaesthetized with CO2, were counted into each dish. At regular intervals, knock down was recorded (cumulatively).
The same methodology was used as was used in Example 105.

[4] = system: Culex quinquefasciatus mosquito; experiment: USDA Petri Dish Method, 3 min exposure to treated glazed tile (twenty 4-6 day old females); format: in vivo; conditions: Table 50, fipronil/adjuvant in acetone, glazed tile, 3 min exposure
Method in brief: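 Twenty 4-6 day old female Culex quinquefasciatus exposed 3 minutes to overnight-dried acetone-applied treatment, then moved to untreated card; at least three replicates. Knockdown scored at intervals over 1–3 hours, sucrose provided, mortality at 24 hours.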

[5] = 0.00032% imidacloprid (1 mg/m^2) in acetone, filter papers, Table 105
[6] = 0.0016% Imidacloprid in acetone, first test
[7] = 0.0016% Imidacloprid in acetone, second test
[8] = 0.0016% imidacloprid (6 mg/m^2) in acetone, filter papers, Table 105
[9] = 0.008% Imidacloprid in acetone, first test
[10] = 0.008% Imidacloprid in acetone, second test
[11] = 0.00032% Deltamethrin in acetone
[12] = 0.0016% Deltamethrin in acetone
[13] = 0.0000128% Deltamethrin in acetone, first test
[14] = 0.0000128% Deltamethrin in acetone, second test
[15] = 0.000064% Deltamethrin in acetone, first test
[16] = 0.000064% Deltamethrin in acetone, second test

CNC(=O)Oc1cccc2c1OC(C)(C)O2 [bendiocarb]
Log P [1]: 1.7

O=[N+]([O-])NC1=NCCN1Cc1ccc(Cl)nc1 [imidacloprid]
suppression of spider populations relative to the untreated control (cross trial average) (spiders): around 24.5% | % Mortality after 15′ ([2]; 0.04% Imidacloprid in acetone): 0% | % Mortality after 30′ ([2]; 0.04% Imidacloprid in acetone): 0% | % Mortality after 1 h ([2]; 0.04% Imidacloprid in acetone): 0% | % Mortality after 2 h ([2]; 0.04% Imidacloprid in acetone): 0% | % Mortality after 4 h ([2]; 0.04% Imidacloprid in acetone): 0% | % Mortality after 6 h ([2]; 0.04% Imidacloprid in acetone): 0% | % Mortality after 1 d ([2]; 0.04% Imidacloprid in acetone): 0% | % Mortality after 15′ ([2]; 0.2% Imidacloprid in acetone): 0% | % Mortality after 30′ ([2]; 0.2% Imidacloprid in acetone): 0% | % Mortality after 1 h ([2]; 0.2% Imidacloprid in acetone): 0% | % Mortality after 2 h ([2]; 0.2% Imidacloprid in acetone): 0% | % Mortality after 4 h ([2]; 0.2% Imidacloprid in acetone): 0% | % Mortality after 6 h ([2]; 0.2% Imidacloprid in acetone): 0% | % Mortality after 1 d ([2]; 0.2% Imidacloprid in acetone): 0% | efficacy with adjuvant compared with insecticide alone (summary in words) ([2]; filter papers in glass dishes): no mortality was observed, with or without adjuvant | % knock down or moribund after 1 h [3, 5]: 0% | % knock down or moribund after 2 h [3, 5]: 0% | % knock down or moribund after 4 h [3, 5]: 0% | % knock down or moribund after 6 h [3, 5]: 0% | % knock down or moribund after 1 d [3, 5]: 0% | % knock down or moribund after 2 d [3, 5]: 0% | % knock down or moribund after 6 d [3, 5]: 0% | % knock down or moribund after 1 h [3, 6]: 0% | % knock down or moribund after 2 h [3, 6]: 0% | % knock down or moribund after 4 h [3, 6]: 0% | % knock down or moribund after 6 h [3, 6]: 10% | % knock down or moribund after 1 d [3, 6]: 20% | % knock down or moribund after 2 d [3, 6]: 20% | % knock down or moribund after 6 d [3, 6]: 40% | % knock down or moribund after 1 h [3, 7]: 0% | % knock down or moribund after 2 h [3, 7]: 0% | % knock down or moribund after 4 h [3, 7]: 0% | % knock down or moribund after 6 h [3, 7]: 0% | % knock down or moribund after 1 d [3, 7]: 0% | % knock down or moribund after 2 d [3, 7]: 0% | % knock down or moribund after 6 d [3, 7]: 0% | % knock down or moribund after 1 h [3, 8]: 0% | % knock down or moribund after 2 h [3, 8]: 0% | % knock down or moribund after 4 h [3, 8]: 0% | % knock down or moribund after 6 h [3, 8]: 0% | % knock down or moribund after 1 d [3, 8]: 0% | % knock down or moribund after 2 d [3, 8]: 0% | % knock down or moribund after 6 d [3, 8]: 0% | % knock down or moribund after 1 h [3, 9]: 0% | % knock down or moribund after 2 h [3, 9]: 0% | % knock down or moribund after 4 h [3, 9]: 0% | % knock down or moribund after 6 h [3, 9]: 20% | % knock down or moribund after 1 d [3, 9]: 30% | % knock down or moribund after 2 d [3, 9]: 40% | % knock down or moribund after 6 d [3, 9]: 80% | % knock down or moribund after 1 h [3, 10]: 0% | % knock down or moribund after 2 h [3, 10]: 0% | % knock down or moribund after 4 h [3, 10]: 0% | % knock down or moribund after 6 h [3, 10]: 0% | % knock down or moribund after 1 d [3, 10]: 0% | % knock down or moribund after 2 d [3, 10]: 0% | % knock down or moribund after 6 d [3, 10]: 10% | efficacy after 6 days ([3]; Example 106, filter paper, concentrations in the label): 0%

N#Cc1nn(-c2c(Cl)cc(C(F)(F)F)cc2Cl)c(N)c1[S+]([O-])C(F)(F)F (stereo not drawn) [Fipronil (.01%)]
Average % Knockdown & Mortality after 30 min [4]: 0% | Average % Knockdown & Mortality after 60 min [4]: 0% | Average % Knockdown & Mortality after 2 hr [4]: 0% | Average % Knockdown & Mortality after 3 hr [4]: 0% | Average % Knockdown & Mortality after 24 hr [4]: 48%

N#Cc1nn(-c2c(Cl)cc(C(F)(F)F)cc2Cl)c(N)c1[S+]([O-])C(F)(F)F (stereo not drawn) [Fipronil (.001%)]
Average % Knockdown & Mortality after 30 min [4]: 0% | Average % Knockdown & Mortality after 60 min [4]: 0% | Average % Knockdown & Mortality after 2 hr [4]: 0% | Average % Knockdown & Mortality after 3 hr [4]: 0% | Average % Knockdown & Mortality after 24 hr [4]: 2%

CC[S+]([O-])c1c(C#N)nn(-c2c(Cl)cc(C(F)(F)F)cc2Cl)c1N (stereo not drawn) [ethiprole]
Log P [1]: 2.90

CC1(C)[C@H](C(=O)O[C@H](C#N)c2cccc(Oc3ccccc3)c2)[C@@H]1C=C(Br)Br [deltamethrin]
suppression of spider populations relative to the untreated control (cross trial average) (spiders): 83.4% | % Mortality after 15′ [2, 11]: 0% | % Mortality after 30′ [2, 11]: 0% | % Mortality after 1 h [2, 11]: 0% | % Mortality after 2 h [2, 11]: 20% | % Mortality after 4 h [2, 11]: 20% | % Mortality after 6 h [2, 11]: 20% | % Mortality after 1 d [2, 11]: 100% | % Mortality after 15′ [2, 12]: 40% | % Mortality after 30′ [2, 12]: 60% | % Mortality after 1 h [2, 12]: 80% | % Mortality after 2 h [2, 12]: 100% | % Mortality after 4 h [2, 12]: 100% | % Mortality after 6 h [2, 12]: 100% | % Mortality after 1 d [2, 12]: 100% | % knock down or moribund after 1 h [3, 13]: 0% | % knock down or moribund after 2 h [3, 13]: 0% | % knock down or moribund after 4 h [3, 13]: 0% | % knock down or moribund after 6 h [3, 13]: 0% | % knock down or moribund after 1 d [3, 13]: 20% | % knock down or moribund after 2 d [3, 13]: 20% | % knock down or moribund after 6 d [3, 13]: 20% | % knock down or moribund after 1 h [3, 14]: 0% | % knock down or moribund after 2 h [3, 14]: 0% | % knock down or moribund after 4 h [3, 14]: 0% | % knock down or moribund after 6 h [3, 14]: 0% | % knock down or moribund after 1 d [3, 14]: 10% | % knock down or moribund after 2 d [3, 14]: 10% | % knock down or moribund after 6 d [3, 14]: 40% | % knock down or moribund after 1 h [3, 15]: 20% | % knock down or moribund after 2 h [3, 15]: 20% | % knock down or moribund after 4 h [3, 15]: 70% | % knock down or moribund after 6 h [3, 15]: 70% | % knock down or moribund after 1 d [3, 15]: 70% | % knock down or moribund after 2 d [3, 15]: 80% | % knock down or moribund after 6 d [3, 15]: 100% | % knock down or moribund after 1 h [3, 16]: 0% | % knock down or moribund after 2 h [3, 16]: 40% | % knock down or moribund after 4 h [3, 16]: 40% | % knock down or moribund after 6 h [3, 16]: 40% | % knock down or moribund after 1 d [3, 16]: 40% | % knock down or moribund after 2 d [3, 16]: 60% | % knock down or moribund after 6 d [3, 16]: 60%
